Data as given in patent US11959486B2, “Stable liquid formulation of AMG 416 (etelcalcetide)” (AMGEN INC., priority 2013, dated 2024).
Read-outs that look alike come from different tables or passages of the source.

Settings: 5 mg/mL
Method: In this study, the effects of various pharmaceutical excipients on the stability of AMG 416 in liquid formulation were determined. A 10 mg/mL solution of AMG 416 and stock solutions of mannitol, glycine, arginine, NaCl and Na2SO4 at 2× isotonic concentrations were prepared. The pH of the AMG 416 solution and the five excipient solutions and deionized water separately were adjusted to pH 3.5 using HCl/NaOH. 500 μL aliquots of each of the six solutions were added to glass vials and 500 μL of the AMG 416 solution was added to the same vials and mixed well. This was performed in triplicate to provided eighteen sample vials, each containing 5 mg/mL AMG 416 and an isotonic concentration of the excipient (or deionized water). This was repeated with a set of solutions adjusted to pH 4.5, providing a further eighteen sample vials. The samples were incubated and removed for HPLC analysis at relevant time points.

## CC(=O)N[C@H](CSSC[C@H](N)C(=O)O)C(=O)N[C@H](C)C(=O)N[C@H](CCCNC(=N)N)C(=O)N[C@H](CCCNC(=N)N)C(=O)N[C@H](CCCNC(=N)N)C(=O)N[C@H](C)C(=O)N[C@H](CCCNC(=N)N)C(N)=O [AMG 416, N-acetyl-D-cysteinyl-D-alanyl-D-arginyl-D-arginyl-D-arginyl-D-alanyl-D-arginamide disulfide with L-cysteine]
Arg, pH 3.5, 2-8° C.
  Extent of degradation at 56 days: 0.0%
Arg, pH 3.5, 40° C.
  Extent of degradation at 56 days: 28%
Arg, pH 3.5, RT
  Extent of degradation at 56 days: 0.6%
Arg, pH 3.5, from 2-8° C. data
  Predicted extent of degradation After 2 Year Storage at Room Temperature: 2%
Arg, pH 3.5, from 40° C. data
  Predicted extent of degradation After 2 Year Storage at Room Temperature: 90%
Arg, pH 3.5, from RT data
  Predicted extent of degradation After 2 Year Storage at Room Temperature: 7%
Arg, pH 4.5, 2-8° C.
  Extent of degradation at 56 days: 0.5%
Arg, pH 4.5, 40° C.
  Extent of degradation at 56 days: 67%
Arg, pH 4.5, RT
  Extent of degradation at 56 days: 29%
Arg, pH 4.5, from 2-8° C. data
  Predicted extent of degradation After 2 Year Storage at Room Temperature: 27%
Arg, pH 4.5, from 40° C. data
  Predicted extent of degradation After 2 Year Storage at Room Temperature: >100%
Arg, pH 4.5, from RT data
  Predicted extent of degradation After 2 Year Storage at Room Temperature: >100%
DI Water, pH 3.5, 2-8° C.
  Extent of degradation at 56 days: 0.0%
DI Water, pH 3.5, 40° C.
  Extent of degradation at 56 days: 8.2%
DI Water, pH 3.5, RT
  Extent of degradation at 56 days: 1.0%
DI Water, pH 3.5, from 2-8° C. data
  Predicted extent of degradation After 2 Year Storage at Room Temperature: 1%
DI Water, pH 3.5, from 40° C. data
  Predicted extent of degradation After 2 Year Storage at Room Temperature: 27%
DI Water, pH 3.5, from RT data
  Predicted extent of degradation After 2 Year Storage at Room Temperature: 13%
DI Water, pH 4.5, 2-8° C.
  Extent of degradation at 56 days: 0.7%
DI Water, pH 4.5, 40° C.
  Extent of degradation at 56 days: 24%
DI Water, pH 4.5, RT
  Extent of degradation at 56 days: 3.6%
DI Water, pH 4.5, from 2-8° C. data
  Predicted extent of degradation After 2 Year Storage at Room Temperature: 35%
DI Water, pH 4.5, from 40° C. data
  Predicted extent of degradation After 2 Year Storage at Room Temperature: 77%
DI Water, pH 4.5, from RT data
  Predicted extent of degradation After 2 Year Storage at Room Temperature: 47%
Gly, pH 3.5, 2-8° C.
  Extent of degradation at 56 days: 0.0%
Gly, pH 3.5, 40° C.
  Extent of degradation at 56 days: 17%
Gly, pH 3.5, RT
  Extent of degradation at 56 days: 0.6%
Gly, pH 3.5, from 2-8° C. data
  Predicted extent of degradation After 2 Year Storage at Room Temperature: 3%
Gly, pH 3.5, from 40° C. data
  Predicted extent of degradation After 2 Year Storage at Room Temperature: 55%
Gly, pH 3.5, from RT data
  Predicted extent of degradation After 2 Year Storage at Room Temperature: 8%
Gly, pH 4.5, 2-8° C.
  Extent of degradation at 56 days: 0.6%
Gly, pH 4.5, 40° C.
  Extent of degradation at 56 days: 28%
Gly, pH 4.5, RT
  Extent of degradation at 56 days: 6.4%
Gly, pH 4.5, from 2-8° C. data
  Predicted extent of degradation After 2 Year Storage at Room Temperature: 31%
Gly, pH 4.5, from 40° C. data
  Predicted extent of degradation After 2 Year Storage at Room Temperature: 90%
Gly, pH 4.5, from RT data
  Predicted extent of degradation After 2 Year Storage at Room Temperature: 83%
Mannitol, pH 3.5, 2-8° C.
  Extent of degradation at 56 days: 0.0%
Mannitol, pH 3.5, 40° C.
  Extent of degradation at 56 days: 4.9%
Mannitol, pH 3.5, RT
  Extent of degradation at 56 days: 0.5%
Mannitol, pH 3.5, from 2-8° C. data
  Predicted extent of degradation After 2 Year Storage at Room Temperature: 0%
Mannitol, pH 3.5, from 40° C. data
  Predicted extent of degradation After 2 Year Storage at Room Temperature: 16%
Mannitol, pH 3.5, from RT data
  Predicted extent of degradation After 2 Year Storage at Room Temperature: 7%
Mannitol, pH 4.5, 2-8° C.
  Extent of degradation at 56 days: 0.5%
Mannitol, pH 4.5, 40° C.
  Extent of degradation at 56 days: 23%
Mannitol, pH 4.5, RT
  Extent of degradation at 56 days: 2.2%
Mannitol, pH 4.5, from 2-8° C. data
  Predicted extent of degradation After 2 Year Storage at Room Temperature: 28%
Mannitol, pH 4.5, from 40° C. data
  Predicted extent of degradation After 2 Year Storage at Room Temperature: 75%
Mannitol, pH 4.5, from RT data
  Predicted extent of degradation After 2 Year Storage at Room Temperature: 28%
Na2SO4, pH 3.5, 2-8° C.
  Extent of degradation at 56 days: 0.0%
Na2SO4, pH 3.5, 40° C.
  Extent of degradation at 56 days: 9.4%
Na2SO4, pH 3.5, RT
  Extent of degradation at 56 days: 0.4%
Na2SO4, pH 3.5, from 2-8° C. data
  Predicted extent of degradation After 2 Year Storage at Room Temperature: 2%
Na2SO4, pH 3.5, from 40° C. data
  Predicted extent of degradation After 2 Year Storage at Room Temperature: 31%
Na2SO4, pH 3.5, from RT data
  Predicted extent of degradation After 2 Year Storage at Room Temperature: 5%
Na2SO4, pH 4.5, 2-8° C.
  Extent of degradation at 56 days: 0.4%
Na2SO4, pH 4.5, 40° C.
  Extent of degradation at 56 days: 30%
Na2SO4, pH 4.5, RT
  Extent of degradation at 56 days: 51%
Na2SO4, pH 4.5, from 2-8° C. data
  Predicted extent of degradation After 2 Year Storage at Room Temperature: 22%
Na2SO4, pH 4.5, from 40° C. data
  Predicted extent of degradation After 2 Year Storage at Room Temperature: 98%
Na2SO4, pH 4.5, from RT data
  Predicted extent of degradation After 2 Year Storage at Room Temperature: >100%
NaCl, pH 3.5, 2-8° C.
  Extent of degradation at 56 days: 0.1%
NaCl, pH 3.5, 40° C.
  Extent of degradation at 56 days: 3.0%
NaCl, pH 3.5, RT
  Extent of degradation at 56 days: 0.3%
NaCl, pH 3.5, from 2-8° C. data
  Predicted extent of degradation After 2 Year Storage at Room Temperature: 4%
NaCl, pH 3.5, from 40° C. data
  Predicted extent of degradation After 2 Year Storage at Room Temperature: 10%
NaCl, pH 3.5, from RT data
  Predicted extent of degradation After 2 Year Storage at Room Temperature: 4%
NaCl, pH 4.5, 2-8° C.
  Extent of degradation at 56 days: 1.1%
NaCl, pH 4.5, 40° C.
  Extent of degradation at 56 days: 18%
NaCl, pH 4.5, RT
  Extent of degradation at 56 days: 1.8%
NaCl, pH 4.5, from 2-8° C. data
  Predicted extent of degradation After 2 Year Storage at Room Temperature: 56%
NaCl, pH 4.5, from 40° C. data
  Predicted extent of degradation After 2 Year Storage at Room Temperature: 58%
NaCl, pH 4.5, from RT data
  Predicted extent of degradation After 2 Year Storage at Room Temperature: 24%
